Drawing on US20130040933A1, “AZAINDOLES AS JANUS KINASE INHIBITORS” (priority 2010, published 2013), this text covers IC50 for 29 compounds.

The structures appear in SMILES notation. Bounds are passed on as bounds.

The target in the first assay is T1, rhJAK3 (Homo sapiens, UniProt P52333).
T1 construct: recombinant purified GST-tagged catalytic domain for each enzyme; purchased Invitrogen PV3855
T1 sequence (P52333 822-1111 limits assumed): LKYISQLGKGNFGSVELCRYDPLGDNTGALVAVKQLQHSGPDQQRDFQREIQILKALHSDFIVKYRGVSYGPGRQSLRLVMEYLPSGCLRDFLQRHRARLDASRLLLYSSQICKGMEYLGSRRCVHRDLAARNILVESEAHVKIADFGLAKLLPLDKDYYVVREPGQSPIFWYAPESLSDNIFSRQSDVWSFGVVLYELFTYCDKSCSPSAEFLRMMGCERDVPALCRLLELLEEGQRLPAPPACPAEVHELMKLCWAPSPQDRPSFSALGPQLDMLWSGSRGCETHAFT
The assay can be described thus: JAK Biochemical HTRF Assay (JAK3). The settings on record: recombinant purified GST-tagged catalytic domain, HTRF format, [ATP] 1.7 μM; read-out: JAK3 IC50. On the procedure:
JAK Biochemical HTRF Assay Protocol
The ability of compounds to inhibit the activity of JAK1, JAK2, JAK3, and TYK2 was measured using a recombinant purified GST-tagged catalytic domain for each enzyme (Invitrogen JAK1 #PV4774, JAK2 #PV4210, JAK3 #PV3855, TYK2 #PV4790) in an HTRF format biochemical assay. The reactions employed a common peptide substrate, LCB-EQEDEPEGDYFEWLW-NH2. The basic assay protocol is as follows: First, […] of diluted compounds in DMSO were dispensed into the wells of a dry 384-well Black plate (Greiner #781076) using a Labcyte Echo 555 acoustic dispenser. Subsequent reagent additions employed a Thermo Multidrop Combi nL. Next, 10 μL of 2× enzyme and 2× substrate in 1× assay buffer (Invitrogen kinase buffer #PV3189, 2 mM DTT, 0.05% BSA) were added to the wells and preincubated for 30 min at room temperature to allow compound binding to equilibrate. After equilibration, 10 μl, of 2×ATP in 1× assay buffer was added to initiate the kinase reaction and the plates were incubated at room temperature for 120 min. At the end of the incubation, 20 μL of 2× stop buffer containing streptavidin-Dylight (Thermo #21845) and Eu-tagged pY20 antibody (Perkin Elmer #AD0067) was added to quench the reaction. Plates were further incubated 60 min at room temperature with shaking and then read on a Perkin Elmer Envision (λex=337 nm, λem=665 and 615 nm, TRF delay time=20 μs). HTRF signal=10,000*665 nm reading/615 nm reading. After normalization to untreated controls, the percent inhibition of the HTRF signal at each compound concentration was calculated. The plot of percent inhibition vs. the log of compound concentration was fit with a 4-parameter dose response equation to calculate IC50 values.
Background: TR-FRET usually uses a lanthanide donor and a delayed reading to cut background.
The term IC50 denotes the concentration at which inhibition is half-maximal. As for `C[C@@H](Nc1cncc(-c2c[nH]c3ncc(C4=CCOCC4)cc23)n1)C(=O)NCC(F)(F)F` [Example 15-15, N^2-{6-[5-(3,6-dihydro-2H-pyran-4-yl)-1H-pyrrolo[2,3-b]pyridin-3-yl]pyrazin-2-yl}-N-(2,2,2-trifluoroethyl)-D-alaninamide], the IC50 was not above 0.001 µM. Still for that read-out and setting: the same measure for `CC(C)[C@@H](Nc1cncc(-c2c[nH]c3ncc(F)cc23)n1)C(=O)NCC(F)(F)F` [Example 16-1, N^2-[6-(5-fluoro-1H-pyrrolo[2,3-b]pyridin-3-yl)pyrazin-2-yl]-N-(2,2,2-trifluoroethyl)-D-valinamide]: 0.001 to 0.01 µM; for `CC(C)[C@@H](Nc1cncc(-c2c[nH]c3ncc(C#N)cc23)n1)C(=O)NCC(F)(F)F` [Example 16-2, N^2-[6-(5-cyano-1H-pyrrolo[2,3-b]pyridin-3-yl)pyrazin-2-yl]-N-(2,2,2-trifluoroethyl)-D-valinamide]: not above 0.001 µM. Same read-out and setting: as for `C[C@@H](Nc1cncc(-c2c[nH]c3ncc(-c4cnn5c4CCC5)cc23)n1)C(=O)NCC(F)(F)F` [Example 15-9, N^2-{6-[5-(5,6-dihydro-4H-pyrrolo[1,2-b]pyrazol-3-yl)-1H-pyrrolo[2,3-b]-pyridin-3-yl]pyrazin-2-yl}-N-(2,2,2-trifluoroethyl)-D-alaninamide], the figure is not above 0.001 µM; as for `C[C@@H](Nc1cncc(-c2c[nH]c3ncc(-c4cccc(N5CCOCC5)c4)cc23)n1)C(=O)NCC(F)(F)F` [Example 15-10, N^2-{6-[5-(3-morpholin-4-ylphenyl)-1H-pyrrolo[2,3-b]pyridin-3-yl]pyrazin-2-yl}-N-(2,2,2-trifluoroethyl)-D-alaninamide], not above 0.001 µM.

As to `COc1cncc(-c2cnc3[nH]cc(-c4cncc(N[C@H](C)C(=O)NCC(F)(F)F)n4)c3c2)c1` [Example 15-18, N^2-{6-[5-(5-methoxypyridin-3-yl)-1H-pyrrolo[2,3-b]pyridin-3-yl]pyrazin-2-yl}-N-(2,2,2-trifluoroethyl)-D-alaninamide], the IC50 was not above 0.001 µM.

Staying with this assay, now noted: recombinant purified GST-tagged catalytic domain, HTRF format, [ATP] 1.7 μM; read-out: rhJAK3 IC50.
Regarding `CN(C)C(=O)C1(Oc2cncc(-c3c[nH]c4ncc(Cl)cc34)n2)CC1` [Example 6-2, 1-{[6-(5-chloro-1H-pyrrolo[2,3-b]pyridin-3-yl)pyrazin-2-yl]oxy}-N,N-dimethyl-cyclopropanecarboxamide], the IC50 was in the range of 0.001 to 0.01 µM. On the same count and under the same terms, the same measure for `CC(C)[C@@H](Nc1cncc(-c2c[nH]c3ncc(C(N)=O)cc23)n1)C(=O)NCC(F)(F)F` [16 Step 8]: not above 0.001 µM; for `C[C@@H](Nc1cncc(-c2c[nH]c3ncc(Cl)cc23)n1)C(=O)N1CCN(CC(F)(F)F)CC1` [Example 2-19, 6-(5-chloro-1H-pyrrolo[2,3-b]-pyridin-3-yl)-N-{(1R)-1-methyl-2-oxo-2-[4-(2,2,2-trifluoroethyl)-piperazin-1-yl]ethyl}pyrazin-2-amine]: 0.1 to 1 µM; for `O=C(NCC(F)(F)F)[C@@H]1CC(F)(F)CN1c1cncc(-c2c[nH]c3ncc(Cl)cc23)n1` [Example 1-8, 1-[6-(5-chloro-1H-pyrrolo[2,3-b]pyridin-3-yl)pyrazin-2-yl]-4,4-difluoro-N-(2,2,2-trifluoroethyl)-L-prolinamide]: 0.001 to 0.01 µM. On the same count and under the same terms, the same measure for `O=C(Cc1cncc(-c2c[nH]c3ncc(Cl)cc23)n1)N1CCOCC1` [Example 8-1, 5-chloro-3-[6-(2-morpholin-4-yl-2-oxoethyl)pyrazin-2-yl]-1H-pyrrolo-[2,3-b]pyridine]: 0.1 to 1 µM; for `O=C(NCC(F)(F)F)C1(Nc2cncc(-c3c[nH]c4ncc(Cl)cc34)n2)CCCC1` [Example 2-25, 1-{[6-(5-chloro-1H-pyrrolo[2,3-b]pyridin-3-yl)pyrazin-2-yl]amino}-N-(2,2,2-trifluoroethyl)cyclopentanecarboxamide]: not above 0.001 µM; for `C[C@H](Nc1cncc(-c2c[nH]c3ncc(Cl)cc23)n1)C(=O)NCC#N` [Example 2-1, N^2-[6-(5-chloro-1H-pyrrolo[2,3-b]-pyridin-3-yl)pyrazin-2-yl]-N-(cyanomethyl)-L-alaninamide]: 0.01 to 0.1 µM. Take `CC(Cc1cccnc1)NC(=O)[C@@H](C)Nc1cncc(-c2c[nH]c3ncc(Cl)cc23)n1` (stereo partly drawn) [Example 2-9, N^2-[6-(5-chloro-1H-pyrrolo[2,3-b]-pyridin-3-yl)pyrazin-2-yl]-N-(l - methyl-2-pyridin-3-ylethyl)-D-alaninamide]: the IC50 was 0.1 to 1 µM.

For `C[C@H](Oc1cncc(-c2c[nH]c3ncc(Cl)cc23)n1)C(=O)NCC(F)(F)F` [Example 6-4, 2(S) 2-{[6-(5-chloro-1H-pyrrolo[2,3-b]pyridin-3-yl)pyrazin-2-yl]oxy}-N-(2,2,2-trifluoroethyl)propanamide], the IC50 lay within 0.001 to 0.01 µM. Still for that read-out and setting: as for `COC(=O)c1ncc(N[C@@H](C)C(=O)NCC(F)(F)F)nc1-c1c[nH]c2ncc(Cl)cc12` [Example 1-16, methyl 3-(5-chloro-1H-pyrrolo[2,3-b]pyridin-3-yl)-5-({(1S)-1-methyl-2-oxo-2-[(2,2,2-trifluoroethyl)amino]ethyl}amino)-pyrazine-2-carboxylate], the figure is 0.01 to 0.1 µM; as for `CC(C)CNC(=O)[C@H](C)Nc1cncc(-c2c[nH]c3ncc(Cl)cc23)n1` [Example 2-23, N^2-[6-(5-chloro-1H-pyrrolo[2,3-b]-pyridin-3-yl)pyrazin-2-yl]-N-(2-methylpropyl)-L-alaninamide], 0.01 to 0.1 µM; as for `O=C(NCC(F)(F)F)[C@@H]1[C@@H](O)CN1c1cncc(-c2c[nH]c3ncc(Cl)cc23)n1` [Example 3, (2S,3S)-1-[6-(5-Chloro-1H-pyrrolo[2,3-b]pyridin-3-yl)pyrazin-2-yl]-3-hydroxy-N-(2,2,2-trifluoroethyl)azetidine-2-carboxamide], 0.001 to 0.01 µM. With `C[C@H](Nc1cncc(-c2c[nH]c3ncc(Cl)cc23)n1)C(=O)N1CCOCC1` [Example 2-2, 6-(5-chloro-1H-pyrrolo[2,3-b]-pyridin-3-yl)-N-[(1S)-1-methyl-2-morpholin-4-yl-2-oxoethyl]pyrazin-2-amine], the IC50 is 0.1 to 1 µM. Same read-out and setting: as for `C[C@@H](Nc1cncc(-c2c[nH]c3ncc(Cl)cc23)n1)C(=O)NCCCN1CCS(=O)(=O)CC1` [Example 2-20, N^2-[6-(5-chloro-1H-pyrrolo[2,3-b]-pyridin-3-yl)pyrazin-2-yl]-N-[3-(1,1-dioxidothiomorpholin-4-yl)-propyl]-D-alaninamide], the figure is 0.1 to 1 µM; as for `C[C@@H](Nc1cncc(-c2c[nH]c3ncc(Cl)cc23)n1)C(=O)NC1CCCCNC1=O` (stereo partly drawn) [Example 2-13, N^2-[6-(5-chloro-1H-pyrrolo[2,3-b]-pyridin-3-yl)pyrazin-2-yl]-N-(2-oxoazepan-3-yl)-D-alaninamide], 0.1 to 1 µM; as for `O=C(Cc1cncc(-c2c[nH]c3ncc(Cl)cc23)n1)NCCC(F)(F)F` [Example 8-3, 2-[6-(5-chloro-1H-pyrrolo[2,3-b]-pyridin-3-yl)pyrazin-2-yl]-N-(3,3,3-trifluoropropyl) acetamide], 0.01 to 0.1 µM. Same read-out and setting: the same measure for `C[C@@H](Nc1cncc(-c2c[nH]c3ncc(Cl)cc23)n1)C(=O)NC1CCC1` [Example 2-17, N^2-[6-(5-chloro-1H-pyrrolo[2,3-b]-pyridin-3-yl)pyrazin-2-yl]-N-cyclo-butyl-D-alaninamide]: 0.01 to 0.1 µM; for `C[C@H](Nc1cncc(-c2c[nH]c3ncc(Cl)cc23)n1)C(=O)N1CCC(F)(F)C1` [Example 2-3, 6-(5-chloro-1H-pyrrolo[2,3-b]-pyridin-3-yl)-N-[(1S)-2-(3,3-difluoropyrrolidin-1-yl)-1-methyl-2-oxoethyl]pyrazin-2-amine]: 0.01 to 0.1 µM. Same read-out and setting: the same measure for `O=C(CCc1cncc(-c2c[nH]c3ncc(Cl)cc23)n1)NCC(F)(F)F` [Example 12, 3-[6-(5-chloro-1H-pyrrolo[2,3-b]pyridin-3-yl)pyrazin-2-yl]-N-(2,2,2-trifluoroethyl)propanamide]: 0.01 to 0.1 µM; for `Cc1cc(CNC(=O)[C@@H](C)Nc2cncc(-c3c[nH]c4ncc(Cl)cc34)n2)no1` [Example 2-6, N^2-[6-(5-chloro-1H-pyrrolo[2,3-b]-pyridin-3-yl)pyrazin-2-yl]-N-[(5 - methylisoxazol-3-yl)methyl]-D-alaninamide]: 0.1 to 1 µM; for `C[C@@H](Nc1cncc(-c2c[nH]c3ncc(Cl)cc23)n1)C(=O)NCc1cccnc1Cl` [Example 2-5, N-[(2-chloropyridin-3-yl)methyl]-N^2-[6-(5-chloro-1H-pyrrolo[2,3-b]-pyridin-3-yl)pyrazin-2-yl]-D-alaninamide]: 0.1 to 1 µM.

As to `CCNC(=O)[C@H]1CCCN1c1cncc(-c2c[nH]c3ncc(Cl)cc23)n1` [Example 1-7, 1-[6-(5-chloro-1H-pyrrolo[2,3-b]pyridin-3-yl)pyrazin-2-yl]-N-ethyl-D-prolinamide], the IC50 lay in the range of 0.001 to 0.01 µM.

For the compound `C[C@H](Nc1cncc(-c2c[nH]c3ncc(Cl)cc23)n1)C(=O)NCC(F)(F)F` [Example 2, N^2-[6-(5-Chloro-1H-pyrrolo[2,3-b]pyridin-3-yl)pyrazin-2-yl]-N-(2,2,2-trifluoroethyl)-L-alaninamide], the IC50 is not above 0.001 µM.
